In patent publication US9273058B2 (BRISTOL-MYERS SQUIBB COMPANY, priority 2013, dated 2016):
pIC50: −log10 of the molar value. Read-outs that look alike come from different tables or passages of the source.

Columns and labels:
[1] = target: CK1ε (Homo sapiens, UniProt P49674); test: CK1ε kinase assay (Caliper LabChip electrophoretic separation of fluoresceinated peptide substrate and product); type: biochemical; conditions: 200 pM CK1ε, 50 μM ATP, 1.5 μM peptide, 22 hours at room temperature
In short: (§1)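 IC50 values were obtained by non-linear regression from eleven-concentration titrations. The kinase reactions were incubated for 22 hours at room temperature before termination with 35 mM EDTA.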

[2] = target: CK1δ (Homo sapiens, UniProt P48730); test: CK1δ kinase assay (Caliper LabChip electrophoretic separation of fluoresceinated peptide substrate and product); type: biochemical; conditions: 200 pM CK1δ, 50 μM ATP, 1.5 μM peptide, 22 hours at room temperature
Sequence of CK1δ (P48730 whole entry): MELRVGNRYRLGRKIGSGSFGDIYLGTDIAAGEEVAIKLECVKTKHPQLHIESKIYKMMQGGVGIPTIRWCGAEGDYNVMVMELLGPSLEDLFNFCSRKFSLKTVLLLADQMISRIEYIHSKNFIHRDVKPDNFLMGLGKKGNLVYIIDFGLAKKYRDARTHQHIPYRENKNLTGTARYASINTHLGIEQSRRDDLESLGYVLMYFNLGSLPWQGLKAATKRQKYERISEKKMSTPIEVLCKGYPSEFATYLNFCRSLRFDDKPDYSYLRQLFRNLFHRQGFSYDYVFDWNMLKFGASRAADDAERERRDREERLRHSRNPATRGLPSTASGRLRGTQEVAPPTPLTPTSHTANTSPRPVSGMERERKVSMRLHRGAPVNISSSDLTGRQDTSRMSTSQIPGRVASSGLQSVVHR
In short: as §1

Sequence of CK1ε (P49674 whole entry): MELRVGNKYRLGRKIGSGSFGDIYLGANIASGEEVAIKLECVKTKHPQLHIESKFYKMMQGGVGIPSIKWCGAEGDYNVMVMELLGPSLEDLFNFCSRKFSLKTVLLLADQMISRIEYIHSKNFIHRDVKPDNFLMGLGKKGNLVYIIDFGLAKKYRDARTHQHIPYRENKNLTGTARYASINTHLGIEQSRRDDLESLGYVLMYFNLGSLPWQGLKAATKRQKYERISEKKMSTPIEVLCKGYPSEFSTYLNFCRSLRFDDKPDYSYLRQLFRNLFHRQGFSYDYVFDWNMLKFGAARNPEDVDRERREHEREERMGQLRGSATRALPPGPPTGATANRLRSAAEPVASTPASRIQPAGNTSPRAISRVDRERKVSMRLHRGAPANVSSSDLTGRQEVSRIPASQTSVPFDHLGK

| Compound | pIC50 ([1]; read-out: CK1ε) | pIC50 ([1]; read-out: CK1ε IC50 range) | pIC50 ([2]; read-out: CK1δ) | pIC50 ([2]; read-out: CK1δ IC50 range) |
| --- | --- | --- | --- | --- |
| NC(=O)c1c(-c2ccc(Cl)c(Cl)c2)nn2c1CN(C(=O)NC1CC(F)(F)C1)C[C@@H]2CF [Compound A30, (R)-2-(3,4-dichlorophenyl)-N^5-(3,3-difluorocyclobutyl)-7-(fluoromethyl)-6,7-dihydropyrazolo[1,5-a] pyrazine-3,5(4H)-dicarboxamide] | 10.00 | 8.00 to 11.00 | 9.52 | 8.00 to 11.00 |
| CC(C)(C)NC(=O)N1Cc2c(C(N)=O)c(-c3ccc(Cl)c(Cl)c3)nn2C(C(F)F)C1 (centres unmarked) [Compound A31, N^5-(tert-Butyl)-2-(3,4-dichlorophenyl)-7-(difluoromethyl)-6,7-dihydropyrazolo[1,5-a]pyrazine-3,5(4H)-dicarboxamide] |  | 7.00 to 8.00 |  | 7.00 to 8.00 |
| CC(C)(C)NC(=O)N1Cc2c(C(N)=O)c(-c3ccc(Cl)c(Cl)c3)nn2C(C(F)F)C1 (centres unmarked) [Compound A32, N^5-(tert-Butyl)-2-(3,4-dichlorophenyl)-7-(difluoromethyl)-6,7-dihydropyrazolo[1,5-a]pyrazine-3,5(4H)-dicarboxamide] |  | 8.00 to 11.00 |  | 8.00 to 11.00 |
| CC1CN(C(=O)NC(C)(C)C)Cc2c(C(N)=O)c(-c3ccc(Cl)c(Cl)c3)nn21 (centres unmarked) [Compound A33, N^5-(tert-Butyl)-2-(3,4-dichlorophenyl)-7-methyl-6,7-dihydropyrazolo[1,5-a]pyrazine-3,5(4H)-dicarboxamide] |  | 8.00 to 11.00 |  | 8.00 to 11.00 |
| CC1CN(C(=O)NC(C)(C)C)Cc2c(C(N)=O)c(-c3ccc(Cl)c(Cl)c3)nn21 (centres unmarked) [Compound A34, N^5-(tert-Butyl)-2-(3,4-dichlorophenyl)-7-methyl-6,7-dihydropyrazolo[1,5-a]pyrazine-3,5(4H)-dicarboxamide] |  | 8.00 to 11.00 |  | 8.00 to 11.00 |
| C[C@@H]1CN(C(=O)NC2CC(F)(F)C2)Cc2c(C(N)=O)c(-c3ccc(Cl)c(Cl)c3)nn21 [Compound A35, (R)-2-(3,4-Dichlorophenyl)-N^5-(3,3-difluorocyclobutyl)-7-methyl-6,7-dihydropyrazolo[1,5-a]pyrazine-3,5(4H)-dicarboxamide] |  | 8.00 to 11.00 |  | 8.00 to 11.00 |
| C[C@H]1CN(C(=O)NC2CC(F)(F)C2)Cc2c(C(N)=O)c(-c3ccc(Cl)c(Cl)c3)nn21 [Compound A36, (S)-2-(3,4-Dichlorophenyl)-N^5-(3,3-difluorocyclobutyl)-7-methyl-6,7-dihydropyrazolo[1,5-c]pyrazine-3,5(4H)-dicarboxamide] |  | 8.00 to 11.00 |  | 8.00 to 11.00 |
| CC(C)(C)NC(=O)N1Cc2c(C(N)=O)c(-c3ccc(Cl)c(Cl)c3)nn2C(C(C)(C)O)C1 (centres unmarked) [Compound A37, N^5-(tert-Butyl)-2-(3,4-dichlorophenyl)-7-(2-hydroxypropan-2-yl)-6,7-dihydropyrazolo[1,5-a]pyrazine-3,5(4H)-dicarboxamide] |  | 8.00 to 11.00 |  | 7.00 to 8.00 |
| CC(C)(C)NC(=O)N1Cc2c(C(N)=O)c(-c3ccc(Cl)c(Cl)c3)nn2C(C(C)(C)O)C1 (centres unmarked) [Compound A38, N^5-(tert-Butyl)-2-(3,4-dichlorophenyl)-7-(2-hydroxypropan-2-yl)-6,7-dihydropyrazolo[1,5-a]pyrazine-3,5(4H)-dicarboxamide] |  | 8.00 to 11.00 |  | 8.00 to 11.00 |
| CC(C)(C)NC(=O)N1Cc2c(C(N)=O)c(-c3ccc(F)c(Cl)c3)nn2C2(C1)CC(F)(F)C2 [Compound A39, N^5′-(tert-Butyl)-2′-(3-chloro-4-fluorophenyl)-3,3-difluoro-4′H-spiro[cyclobutane-1,7′-pyrazolo[1,5-a]pyrazine]-3′,5′(6′H)-dicarboxamide] |  | 8.00 to 11.00 |  | 8.00 to 11.00 |
| NC(=O)c1c(-c2cccc(Cl)c2)nn2c1CN(C(=O)NC1(C(F)(F)F)CC1)CC2 [Compound A40, 2-(3-Chlorophenyl)-N^5-(1-(trifluoromethyl)cyclopropyl)-6,7-dihydropyrazolo[1,5-a]pyrazine-3,5(4H)-dicarboxamide] |  | 8.00 to 11.00 |  | 8.00 to 11.00 |
| CC1(NC(=O)N2CCn3nc(-c4cccc(Cl)c4)c(C(N)=O)c3C2)CC1 [Compound A42, 2-(3-Chlorophenyl)-N^5-(1-methylcyclopropyl)-6,7-dihydropyrazolo[1,5-a]pyrazine-3,5(4H)-dicarboxamide] |  | 8.00 to 11.00 |  | 8.00 to 11.00 |
| CC(C)(CO)NC(=O)N1CCn2nc(-c3cccc(Cl)c3)c(C(N)=O)c2C1 [Compound A46, 2-(3-Chlorophenyl)-N^5-(1-hydroxy-2-methylpropan-2-yl)-6,7-dihydropyrazolo[1,5-a] pyrazine-3,5(4H)-dicarboxamide] |  | 8.00 to 11.00 |  | 8.00 to 11.00 |
| COCC(C)(C)NC(=O)N1CCn2nc(-c3cccc(Cl)c3)c(C(N)=O)c2C1 [Compound A47, 2-(3-Chlorophenyl)-N^5-(1-methoxy-2-methylpropan-2-yl)-6,7-dihydropyrazolo[1,5-a] pyrazine-3,5(4H)-dicarboxamide] |  | 8.00 to 11.00 |  | 8.00 to 11.00 |
| CC(C)(CO)NC(=O)N1CCn2nc(-c3ccc(F)c(Cl)c3)c(C(N)=O)c2C1 [Compound A48, 2-(3-Chloro-4-fluorophenyl)-N^5-(1-hydroxy-2-methylpropan-2-yl)-6,7-dihydropyrazolo[1,5-a] pyrazine-3,5(4H)-dicarboxamide] |  | 8.00 to 11.00 |  | 8.00 to 11.00 |
| NC(=O)c1c(-c2ccc(F)c(Cl)c2)nn2c1CN(C(=O)NC(CF)(CF)CF)CC2 [Compound A49, 2-(3-Chloro-4-fluorophenyl)-N^5-(1,3-difluoro-2-(fluoromethyl)propan-2-yl)-6,7-dihydropyrazolo[1,5-a] pyrazine-3,5(4H)-dicarboxamide] |  | 8.00 to 11.00 |  | 8.00 to 11.00 |
| N#Cc1ccc(C23CCC(NC(=O)N4CCn5nc(-c6ccc(F)c(Cl)c6)c(C(N)=O)c5C4)(CC2)CC3)cc1 [Compound A51, 2-(3-Chloro-4-fluorophenyl)-N^5-(4-(4-cyanophenyl)bicyclo[2.2.2]octan-1-yl)-6,7-dihydropyrazolo[1,5-a]pyrazine-3,5(4H)-dicarboxamide] |  | 8.00 to 11.00 |  | 8.00 to 11.00 |
| NC(=O)c1c(-c2ccc(F)c(Cl)c2)nn2c1CN(C(=O)NC13CCC(c4ccc(F)cc4)(CC1)CC3)CC2 [Compound A52, 2-(3-Chloro-4-fluorophenyl)-N^5-(4-(4-fluorophenyl)bicyclo[2.2.2]octan-1-yl)-6,7-dihydropyrazolo[1,5-a]pyrazine-3,5(4H)-dicarboxamide] |  | 8.00 to 11.00 |  | 8.00 to 11.00 |
| NC(=O)c1c(-c2ccc(F)c(Cl)c2)nn2c1CN(C(=O)NC13CCC(c4ccccc4)(CC1)CC3)CC2 [Compound A53, 2-(3-Chloro-4-fluorophenyl)-N^5-(4-phenylbicyclo[2.2.2]octan-1-yl)-6,7-dihydropyrazolo[1,5-a]pyrazine-3,5(4H)-dicarboxamide] |  | 8.00 to 11.00 |  | 8.00 to 11.00 |
| NC(=O)c1c(-c2ccc(F)c(Cl)c2)nn2c1CN(C(=O)NC13CCC(F)(CC1)CC3)CC2 [Compound A54, 2-(3-Chloro-4-fluorophenyl)-N^5-(4-fluorobicyclo[2.2.2]octan-1-yl)-6,7-dihydropyrazolo[1,5-a]pyrazine-3,5(4H)-dicarboxamide] |  | 8.00 to 11.00 |  | 8.00 to 11.00 |
| NC(=O)c1c(-c2ccc(F)c(Cl)c2)nn2c1CN(C(=O)NC13CCC(CO)(CC1)CC3)CC2 [Compound A55, 2-(3-Chloro-4-fluorophenyl)-N^5-(4-(hydroxymethyl)bicyclo[2.2.2]octan-1-yl)-6,7-dihydropyrazolo[1,5-a]pyrazine-3,5(4H)-dicarboxamide] |  | 8.00 to 11.00 |  | 8.00 to 11.00 |
| NC(=O)c1c(-c2ccc(F)c(Cl)c2)nn2c1CN(C(=O)NC13CCC(CF)(CC1)CC3)CC2 [Compound A56, 2-(3-Chloro-4-fluorophenyl)-N^5-(4-(fluoromethyl)bicyclo[2.2.2]octan-1-yl)-6,7-dihydropyrazolo[1,5-a]pyrazine-3,5(4H)-dicarboxamide] |  | 8.00 to 11.00 |  | 8.00 to 11.00 |
| NC(=O)c1c(-c2ccc(F)c(Cl)c2)nn2c1CN(C(=O)NC13CCC(CC1)CC3)CC2 [Compound A58, N^5-(Bicyclo[2.2.2]octan-1-yl)-2-(3-chloro-4-fluorophenyl)-6,7-dihydropyrazolo[1,5-a]pyrazine-3,5(4H)-dicarboxamide] |  | 8.00 to 11.00 |  | 8.00 to 11.00 |
| COC12CCC(NC(=O)N3CCn4nc(-c5ccc(F)c(Cl)c5)c(C(N)=O)c4C3)(CC1)C(F)(F)C2 [Compound A61, 2-(3-Chloro-4-fluorophenyl)-N^5-(2,2-difluoro-4-methoxybicyclo[2.2.2]octan-1-yl)-6,7-dihydropyrazolo[1,5-a]pyrazine-3,5(4H)-dicarboxamide] |  | 8.00 to 11.00 |  | 8.00 to 11.00 |
| CC(C)(O)C12CCC(NC(=O)N3CCn4nc(-c5ccc(F)c(Cl)c5)c(C(N)=O)c4C3)(CC1)CC2 [Compound A62, 2-(3-Chloro-4-fluorophenyl)-N^5-(4-(2-hydroxypropan-2-yl)bicyclo[2.2.2]octan-1-yl)-6,7-dihydropyrazolo[1,5-a]pyrazine-3,5(4H)-dicarboxamide] |  | 8.00 to 11.00 |  | 8.00 to 11.00 |
| COC12CCC(NC(=O)N3CCn4nc(-c5ccc(F)c(Cl)c5)c(C(N)=O)c4C3)(CC1)C2 [Compound A63, 2-(3-Chloro-4-fluorophenyl)-N^5-(4-methoxybicyclo[2.2.1]heptan-1-yl)-6,7-dihydropyrazolo[1,5-a]pyrazine-3,5(4H)-dicarboxamide] |  | 8.00 to 11.00 |  | 8.00 to 11.00 |
| NC(=O)c1c(-c2ccc(F)c(Cl)c2)nn2c1CN(C(=O)NC13CCCC(CCC1)C3)CC2 [Compound A64, N^5-((1r,5r)-Bicyclo[3.3.1]nonan-1-yl)-2-(3-chloro-4-fluorophenyl)-6,7-dihydropyrazolo[1,5-a]pyrazine-3,5(4H)-dicarboxamide] |  | 8.00 to 11.00 |  | 8.00 to 11.00 |
